Consider twelve molecules from patent US20070060605A1, “Compositions and methods for inhibiting platelet activation and thrombosis” (priority 2001, published 2007).

Like-named read-outs stand apart in the source and are kept apart here.

Holding throughout (assay type): cell-based, human
For one experiment, the system named is platelets. Kind of experiment: Agonist-induced platelet granule secretion / activation (P-selectin expression by flow cytometry; ADP/ATP release). Conditions: for Inhibition of PMA-induced platelet responses: even at millimolar concentrations. Here is the method:
In order to monitor ATP release, a cocktail of 100 μM SFLLR (synthesized using solid phase Fmoc chemistry on an Applied Biosystems model 430A peptide synthesizer) and 3 mg/ml of luciferin/luciferase (Sigma, St. Louis, Mo.) in a volume of 10 μl is added to 20 μl of PRP. Samples are immediately analyzed for luminescence. Activated platelets supply the ATP necessary for luminescence of the luciferin/luciferase assay. Assays can be performed at high throughput through use of a microtiter plate system, e.g., 384-well plates and a Multidrop 384 (Thermo Labsystems, Helsinki), read with a high density imaging system, e.g., the Tundra system (Imaging Research, St. Catherine's, Ontario).
(§1) In order to assay platelet activation by cell surface marker expression, fresh PRP is isolated from donors who have not ingested aspirin for two weeks prior to donation. PRP (40 μl) is incubated with known or suspected inhibitor in DMSO or DMSO alone for 15 min. The sample is then incubated with the indicated agonist (e.g., SFLLR) for 10 min. Following incubation of the sample with the indicated agonist, 10 μl of reaction mixture is transferred to 5 μl of phycoerythrin (PE)-conjugated AC 1.2 anti-P-selectin antibody (for assessment of P-selectin surface expression) or fluorescein isothiocyanate (FITC)-conjugated PAC-1 antibody (for assessment of GPIIbIIIa activation). PBS (500 μl) is added to the sample after a 20 min incubation and the platelets are analyzed immediately by flow cytometry. Flow cytometry can be performed using, for example, a Becton-Dickinson FACSCalibur flow cytometer or its equivalent. Fluorescent channels are set at logarithmic gain. Ten thousand particles are acquired for each sample. A 530/30 band pass filter is used for FL-1 fluorescence. A 585/42 band pass filter is used for FL-2 fluorescence. FITC is measured in the FL-1 channel and PE is measured in the FL-2 channel. Data are analyzed using, for example, CellQuest software on a Macintosh PowerPC, or their equivalents.
Compounds were tested for the ability to inhibit agonist-induced ADP/ATP release from platelet dense granules using a luciferin-luciferase reporter system. In this assay, compounds were incubated with platelet-rich plasma (PRP) for 30 min. A cocktail of the platelet agonist and luciferin-luciferase was then added to the wells. Plates were immediately analyzed using a Tundra high density luminescence imager. […] As a control, compounds were also screened in a platelet-free assay for the ability to inhibit luciferin-luciferase upon exposure to ATP.
Each of the compounds was tested for inhibition of platelet activation in response to the agonists SFLLR (a thrombin mimic), U46619 (a thromboxane A2 mimic), ADP and the phorbol ester PMA.
(§2) Compounds were also tested by flow cytometry for the inhibition of SFLLR-induced GPIIbIIIa activation and P-selectin expression. In these experiments, freshly obtained PRP was prepared from healthy volunteers who had not ingested aspirin for two weeks prior to donation. Forty μl of PRP was incubated with inhibitor in DMSO or DMSO alone for 15 min. The sample was then incubated with the indicated agonist for 10 min. Following incubation of the sample with the indicated agonist, 10 μl of reaction mixture was transferred to 5 μl of PE-conjugated AC1.2 anti-P-selectin antibody (for assessment of P-selectin surface expression) or FITC-conjugated PAC-1 antibody (for assessment of GPIIbIIIa activation). PBS (500 μl) was added to the sample after a 20 min incubation and the platelets were analyzed immediately by flow cytometry. Flow cytometry was performed using a Becton-Dickinson FACSCalibur flow cytometer. Fluorescent channels were set at logarithmic gain. Ten thousand particles were acquired for each sample. A 530/30 band pass filter was used for FL-1 fluorescence. A 585/42 band pass filter was used for FL-2 fluorescence. FITC was measured in the FL-1 channel and PE was measured in the FL-2 channel.
On the technique in general: Flow cytometry measures light scatter and fluorescence of single cells or particles in a stream.

Another experiment has as its system platelet GPIIbIIIa. Kind of experiment: SFLLR-induced GPIIbIIIa activation (PAC-1 antibody, flow cytometry). The conditions noted are these: Homo sapiens, Platelet; agonist SFLLR; read-out: IC50s of inhibition of platelet GPIIbIIIa activation induced with SFLLR. The method, then:
as §1
as §2, with “channel. Data were analyzed using CellQuest software on a MacIntosh PowerPC.” for “channel.”

In experiment [1] the test system is PGE1-induced cAMP levels in platelets. Description: Augmentation of PGE1-induced cAMP levels in platelets. The conditions noted are these: no single concentration. The method, then: One frequent target of anti-platelet agents is phosphodiesterase III (PDE III). […] The assay is performed as described by Liao et al., 1998, Eur J Pharmacol 349,107-114, incorporated herein by reference. Briefly, aliquots of PRP are exposed to increasing concentrations of the agent for 20 minutes. The PRP is then challenged with 1 μM PGE1 for 2 min The reaction is stopped by adding 10 mM EDTA, followed immediately by boiling for 2 min. The mixture is cooled to 4° C. and the precipitated protein is pelleted. cAMP content in the supernatant is quantitated using an enzyme immunoassay kit (Pharmacia-Amersham, N.J.) according to the instructions of the manufacturer.
In order to assess whether the compounds useful according to the invention might act through inhibition phosphodiesterase III, each was tested for its effect on PGE1-induced cAMP increase. Determination of platelet cAMP levels was performed as described by Liao et al., 1998, supra. Aliquots of PRP were exposed to increasing concentrations of the indicated compounds for 20 min. PRP was then challenged with 1 μM PGE1 for 2 min. The reaction was stopped with the addition of 10 mM EDTA followed immediately by boiling for 2 min. The mixture was then cooled to 4° C. and the precipitated protein was pelleted. Cyclic AMP content in the supernatant was then quantified using an enzyme immunoassay kit (Pharmacia-Amersham, N.J.) according to the instructions of the manufacturer.
Background: Changes in cAMP serve as a functional read-out for many G protein-coupled receptors.

The mark [2] stands for this setting: Homo sapiens, Platelet, agonist ADP, read-out: IC50s of inhibition of platelet granule secretion induced with ADP.
Setting [3] is: Homo sapiens, Platelet, agonist PMA, read-out: IC50s of inhibition of platelet granule secretion induced with PMA.
Setting [4] is: Homo sapiens, Platelet, agonist U-46619, read-out: IC50s of inhibition of platelet granule secretion induced with U-46619.
Where [5] appears, read: Homo sapiens, Platelet, agonist SFLLR, read-out: IC50s of inhibition of platelet granule secretion induced with SFLLR.
Setting [6] is: Homo sapiens, Platelet, agonists SFLLR and U-46619, read-out: IC50 SFLLR- and U-46619-induced activation.
Where [7] appears, read: Homo sapiens, Platelet, agonists U-46619, ADP, PMA, read-out: IC50 U-46619-, ADP-, and PMA-induced platelet responses.
The mark [8] stands for this setting: Homo sapiens, Platelet, agonist SFLLRN/SFLLR, human platelets, read-out: IC50 SFLLRN-induced P-selectin expression, flow cytometry.

Regarding `CCOC(=O)C1(C2(O)C(=O)c3ccccc3C2=O)CCCC1=O` (centres unmarked) [1-(2-hydroxy-1,3-dioxo-indan-2-yl)-2-oxo-cyclopentanecarboxylic acid ethyl ester], the IC50 with platelets (setting [2]) was 50 µM; in the experiment with platelets (setting [3]), above 1000 µM; in the experiment on platelets (setting [4]) it was 30 µM; in the experiment with platelets (setting [5]), 50 µM; with platelet GPIIbIIIa it was 50 µM. Also, the “Inhibition of PMA-induced platelet responses” value with platelets (agonist PMA) is “no activity”.
On to `Cn1cc(/C=N/NC(N)=O)c2ccccc21` [2-[(1-methyl-1H-indol-3-yl)methylene]-hydrazinecarboxamide], for which the IC50 with platelets (setting [2]) is 1000 µM; in the experiment with platelets (setting [3]), 1000 µM; with platelets (setting [4]), 20 µM; with platelets (setting [6]), 20 to 50 µM; with platelets (setting [5]), 50 µM. Besides, in the experiment on platelets (agonists ADP and PMA), the “Effect on ADP- and PMA-induced activation” value is “little effect”. Moreover, the “Effect on PGE1-stimulated cAMP levels in platelets” value in experiment [1] is reported as “augmented”.
Take `O=C1NC(=O)N(c2cccc3ccccc23)C(=O)/C1=C\c1ccco1` [5-(2-furanylmethylene)-1-1-naphthalenyl)-2,4,6(1H, 3H, 5H)-pyrimidinetrione]: the IC50 with platelets (Homo sapiens, Platelet, read-out: IC50s of inhibition of platelet granule secretion induced with ADP) was 60 µM; in the experiment with platelets (Homo sapiens, Platelet, read-out: IC50s of inhibition of platelet granule secretion induced with PMA), 150 µM; with platelets (Homo sapiens, Platelet, read-out: IC50s of inhibition of platelet granule secretion induced with SFLLR) it was 100 µM; in the experiment on platelets (Homo sapiens, Platelet, read-out: IC50s of inhibition of platelet granule secretion induced with U-46619), 50 µM; with platelet GPIIbIIIa it was 100 µM.
With `O=C(CN1CCOCC1)N1c2ccccc2Sc2ccc(C(F)(F)F)cc21` [10H-phenothiazine, 10-(4-morpholinylacetyl)-2-(trifluoromethyl)], the IC50 is 150 µM in the experiment with platelets (setting [2]); 85 µM in the experiment on platelets (setting [3]); 100 µM in the experiment on platelets (setting [4]); 80 µM with platelets (setting [5]); 50 µM in the experiment with platelet GPIIbIIIa.
Turning to `CCCCCn1c2c(c(=N)c3ccccc31)CCC2` [III], the IC50 in the experiment on platelets (setting [7]) is around 500 µM.
Same read-out and setting: next, `CCCCn1c2c(c(=N)c3ccccc31)CCC2` [II]: around 500 µM; `CCCn1c2c(c(=N)c3ccccc31)CCC2` [I]: around 500 µM.
On to `CCCn1c2c(c(=N)c3ccccc31)CCC2` [JF081204{3C}], for which, in the experiment with platelets (setting [8]), the IC50 lay within 2 to 150 µM.
Take `CCCCn1c2c(c(=N)c3ccccc31)CCC2` [JF081204{4C}]: the IC50 with platelets (setting [8]) was 2 to 150 µM.
As for `CC1CC(=O)NN=C1c1ccc(Cl)cc1` (centres unmarked) [Structure 9, 6-(4-chlorophenyl)-5-methyl-4,5-dihydro-5 methyl-3(2H)-pyridazinone], the “ADP-induced responses inhibited less effectively than SFLLR and U46619 responses” value in the experiment with platelets (ADP vs SFLLR and U46619) is “approximately 20 fold”. The results for the IC50 in the experiment with platelets (setting [2]) and with platelets (setting [6]) were 8 µM and 0.3 µM, respectively. Moreover, the “Inhibition of PMA-induced platelet activation” value in the experiment on platelets (agonist PMA) is “did not inhibit”.
As to `Nc1cc2cccnc2c2ncccc12` [[1,10]Phenanthroline-5-ylamine], the IC50 with platelets (setting [2]) was 50 µM; in the experiment on platelets (setting [3]) it was above 1000 µM; with platelets (setting [4]), 30 µM; in the experiment with platelets (setting [5]), 50 µM; with platelets (agonist ADP, read-out: IC50s of inhibition of platelet granule secretion induced with ADP) it was 100 µM; with platelet GPIIbIIIa it was 50 µM. For the same molecule, the “Inhibition of PMA-induced platelet responses” value in the experiment with platelets (agonist PMA) is listed as “did not inhibit”. Also, the “Effect on PGE1-stimulated cAMP levels in platelets” value in experiment [1] is “failed to augment”.
As for `CC(=O)OC(CC(=O)c1ccc(Cl)cc1Cl)C(Cl)(Cl)Cl` (centres unmarked) [acetic acid 3-(2,4-dichlorophenyl)-3-oxo-1-trichloromethyl-propyl ester], the IC50 was 200 µM in the experiment on platelets (setting [2]); 200 µM in the experiment with platelets (setting [3]); 20 µM in the experiment with platelets (setting [4]); around 200 µM in the experiment on platelets (Homo sapiens, Platelet, agonists ADP and PMA, read-out: IC50 ADP- and PMA-induced activation); 20 to 50 µM with platelets (setting [6]); 50 µM with platelets (setting [5]). Further, the IC50 with platelet GPIIbIIIa came out at 30 µM.
